Source: patent US20240393292A1, “ALLERGY ANTIGEN AND EPITOPE THEREOF” (HOYU CO., LTD., priority 2019, published 2024)
Each block holds one substance with its values, some of them ahead of it.

Test system: IgE antibodies from patients
Assay: Wheat epitope mapping (2): overlapping 10-amino-acid peptide fragments shifted by one amino acid
Assay type: binding, human
Conditions: partial sequence
Procedure, shortened: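 Residual binding was banded as <30% none, 30–<50% poor, 50–<70% somewhat poor and ≥70% retained, relative to the parent overlapping sequence set to 100%. Values were chemiluminescent IgE signals from patient sera after subtracting secondary-antibody-only controls. The peptides were spot-synthesised 10-mers shifted by one amino acid.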

[1] = serum of patient G3 (adult, general immediate type allergy to wheat)
[2] = serum of patient G7 (adult, general immediate type allergy to wheat)
[3] = serum of patient G9 (adult, general immediate type allergy to wheat)
[4] = serum of patient P50 (child, general immediate type allergy to wheat)

Substance: 2625 (ASLSKRV; REGION 1..7: note = epitope) [compound 2625]
Epitope sequence binding to IgE antibody, rank of the sequence [1]: Preferably

Substance: 2626 (LSKRV; REGION 1..5: note = epitope) [compound 2626]
Epitope sequence binding to IgE antibody, rank of the sequence [1]: Key

Substance: 2627 (LLASLSKRV; REGION 1..9: note = epitope) [compound 2627]
Epitope sequence binding to IgE antibody, rank of the sequence [2]: Key

Substance: 2630 (LASLSK; REGION 1..6: note = epitope) [compound 2630]
Epitope sequence binding to IgE antibody, rank of the sequence [3]: Key

Substance: 2633 (KEAAEM; REGION 1..6: note = epitope) [compound 2633]
Epitope sequence binding to IgE antibody, rank of the sequence (serum of patient P7 (WDEIA)): Preferably

Substance: 2634 (EAAE; REGION 1..4: note = epitope) [compound 2634]
Epitope sequence binding to IgE antibody, rank of the sequence (serum of patient P7 (WDEIA)): Key

Substance: 2637 (KEAAEM; REGION 1..6: note = epitope) [compound 2637]
Epitope sequence binding to IgE antibody, rank of the sequence (serum of patient P10 (WDEIA)): Preferably

Substance: 2638 (EAAE; REGION 1..4: note = epitope) [compound 2638]
Epitope sequence binding to IgE antibody, rank of the sequence (serum of patient P10 (WDEIA)): Key

Substance: 2640 (RFEKEAAEMN; REGION 1..10: note = epitope) [compound 2640]
Epitope sequence binding to IgE antibody, rank of the sequence (serum of patient P14 (WDEIA)): Preferably

Substance: 2641 (KEAAEM; REGION 1..6: note = epitope) [compound 2641]
Epitope sequence binding to IgE antibody, rank of the sequence (serum of patient P14 (WDEIA)): Key

Substance: 2642 (KEAAEM; REGION 1..6: note = epitope) [compound 2642]
Epitope sequence binding to IgE antibody, rank of the sequence (serum of patient P16 (WDEIA)): Key

Substance: 2643 (KEAAEMN; REGION 1..7: note = epitope) [compound 2643]
Epitope sequence binding to IgE antibody, rank of the sequence (serum of patient P20 (WDEIA)): Preferably

Substance: 2646 (KEAAEMN; REGION 1..7: note = epitope) [compound 2646]
Epitope sequence binding to IgE antibody, rank of the sequence (serum of patient P22 (WDEIA)): Key

Substance: 2647 (KEAAEM; REGION 1..6: note = epitope) [compound 2647]
Epitope sequence binding to IgE antibody, rank of the sequence (serum of patient P26 (WDEIA)): Key

Substance: 2648 (NKRSFK; REGION 1..6: note = epitope) [compound 2648]
Epitope sequence binding to IgE antibody, rank of the sequence (serum of patient P26 (WDEIA)): Key

Substance: 2649 (KEAAE; REGION 1..5: note = epitope) [compound 2649]
Epitope sequence binding to IgE antibody, rank of the sequence (serum of patient P29 (WDEIA)): Preferably

Substance: 2652 (KEAAEM; REGION 1..6: note = epitope) [compound 2652]
Epitope sequence binding to IgE antibody, rank of the sequence (serum of patient P31 (WDEIA)): Preferably

Substance: 2653 (EAAE; REGION 1..4: note = epitope) [compound 2653]
Epitope sequence binding to IgE antibody, rank of the sequence (serum of patient P31 (WDEIA)): Key

Substance: 2655 (EAAEMNK; REGION 1..7: note = epitope) [compound 2655]
Epitope sequence binding to IgE antibody, rank of the sequence (serum of patient P32 (WDEIA)): Preferably

Substance: 2658 (FEKEAAE; REGION 1..7: note = epitope) [compound 2658]
Epitope sequence binding to IgE antibody, rank of the sequence (serum of patient P35 (WDEIA)): Key

Substance: 2659 (EAAEMNKRSF; REGION 1..10: note = epitope) [compound 2659]
Epitope sequence binding to IgE antibody, rank of the sequence (serum of patient P35 (WDEIA)): Preferably

Substance: 2660 (EMNKRSF; REGION 1..7: note = epitope) [compound 2660]
Epitope sequence binding to IgE antibody, rank of the sequence (serum of patient P35 (WDEIA)): Key

Substance: 2663 (FEKEAA; REGION 1..6: note = epitope) [compound 2663]
Epitope sequence binding to IgE antibody, rank of the sequence [4]: Preferably

Substance: 2664 (FEKEA; REGION 1..5: note = epitope) [compound 2664]
Epitope sequence binding to IgE antibody, rank of the sequence [4]: Key

Substance: 2668 (KEAAE; REGION 1..5: note = epitope) [compound 2668]
Epitope sequence binding to IgE antibody, rank of the sequence (serum of patient P57 (child, general immediate type allergy to wheat)): Preferably

Substance: 2671 (AEMNKRSFK; REGION 1..9: note = epitope) [compound 2671]
Epitope sequence binding to IgE antibody, rank of the sequence (serum of patient G5 (adult, general immediate type allergy to wheat)): Key

Substance: 2672 (RFEKEAAEMN; REGION 1..10: note = epitope) [compound 2672]
Epitope sequence binding to IgE antibody, rank of the sequence [2]: Key

Substance: 2673 (EAAEMNKR; REGION 1..8: note = epitope) [compound 2673]
Epitope sequence binding to IgE antibody, rank of the sequence [2]: Key

Substance: 2676 (YKGPTL; REGION 1..6: note = epitope) [compound 2676]
Epitope sequence binding to IgE antibody, rank of the sequence (serum of patient P8 (WDEIA)): Key

Substance: 2677 (YKGPTL; REGION 1..6: note = epitope) [compound 2677]
Epitope sequence binding to IgE antibody, rank of the sequence (serum of patient P12 (WDEIA)): Key

Substance: 2679 (YKGPTL; REGION 1..6: note = epitope) [compound 2679]
Epitope sequence binding to IgE antibody, rank of the sequence (serum of patient P14 (WDEIA)): Key

Substance: 2680 (YKGPTL; REGION 1..6: note = epitope) [compound 2680]
Epitope sequence binding to IgE antibody, rank of the sequence (serum of patient P17 (WDEIA)): Key

Substance: 2682 (YKGPTL; REGION 1..6: note = epitope) [compound 2682]
Epitope sequence binding to IgE antibody, rank of the sequence (serum of patient P22 (WDEIA)): Preferably

The remaining lines, values ahead:

Epitope sequence binding to IgE antibody, rank of the sequence (serum of patient P22 (WDEIA)): Key
Substance: 2683 (KGPTL; REGION 1..5: note = epitope) [compound 2683]

Epitope sequence binding to IgE antibody, rank of the sequence (serum of patient P26 (WDEIA)): Key
Substance: 2684 (YKGPTL; REGION 1..6: note = epitope) [compound 2684]

Epitope sequence binding to IgE antibody, rank of the sequence (serum of patient P27 (WDEIA)): Preferably
Substance: 2685 (YKGPTL; REGION 1..6: note = epitope) [compound 2685]

Epitope sequence binding to IgE antibody, rank of the sequence (serum of patient P29 (WDEIA)): Key
Substance: 2688 (YKGPTL; REGION 1..6: note = epitope) [compound 2688]

Epitope sequence binding to IgE antibody, rank of the sequence (serum of patient P30 (WDEIA)): Key
Substance: 2689 (YKGPTL; REGION 1..6: note = epitope) [compound 2689]

Epitope sequence binding to IgE antibody, rank of the sequence (serum of patient P33 (WDEIA)): Key
Substance: 2692 (YKGPTL; REGION 1..6: note = epitope) [compound 2692]

Epitope sequence binding to IgE antibody, rank of the sequence (serum of patient P34 (WDEIA)): Key
Substance: 2693 (YKGPTL; REGION 1..6: note = epitope) [compound 2693]

Epitope sequence binding to IgE antibody, rank of the sequence (serum of patient P35 (WDEIA)): Key
Substance: 2694 (YKGPTL; REGION 1..6: note = epitope) [compound 2694]

Epitope sequence binding to IgE antibody, rank of the sequence (serum of patient P36 (WDEIA)): Key
Substance: 2695 (YKGPTL; REGION 1..6: note = epitope) [compound 2695]

Epitope sequence binding to IgE antibody, rank of the sequence [1]: Key
Substance: 2696 (YKGPTL; REGION 1..6: note = epitope) [compound 2696]

Epitope sequence binding to IgE antibody, rank of the sequence (serum of patient G6 (adult, general immediate type allergy to wheat)): Key
Substance: 2697 (YKGPTL; REGION 1..6: note = epitope) [compound 2697]

Epitope sequence binding to IgE antibody, rank of the sequence [2]: Key
Substance: 2698 (KGPTL; REGION 1..5: note = epitope) [compound 2698]

Epitope sequence binding to IgE antibody, rank of the sequence (serum of patient G8 (adult, general immediate type allergy to wheat)): Key
Substance: 2699 (YKGPTL; REGION 1..6: note = epitope) [compound 2699]

Epitope sequence binding to IgE antibody, rank of the sequence [3]: Key
Substance: 2700 (YKGPTL; REGION 1..6: note = epitope) [compound 2700]

Epitope sequence binding to IgE antibody, rank of the sequence (serum of patient P3 (WDEIA)): Preferably
Substance: 2703 (YKIGGIGTV; REGION 1..9: note = epitope) [compound 2703]

Epitope sequence binding to IgE antibody, rank of the sequence (serum of patient P3 (WDEIA)): Key
Substance: 2704 (YKIGGI; REGION 1..6: note = epitope) [compound 2704]

Epitope sequence binding to IgE antibody, rank of the sequence (serum of patient P8 (WDEIA)): Preferably
Substance: 2706 (YKIGGIGTV; REGION 1..9: note = epitope) [compound 2706]

Epitope sequence binding to IgE antibody, rank of the sequence (serum of patient P8 (WDEIA)): Key
Substance: 2707 (YKIGGIGT; REGION 1..8: note = epitope) [compound 2707]

Epitope sequence binding to IgE antibody, rank of the sequence (serum of patient P16 (WDEIA)): Preferably
Substance: 2709 (YKIGGIGT; REGION 1..8: note = epitope) [compound 2709]

Epitope sequence binding to IgE antibody, rank of the sequence (serum of patient P16 (WDEIA)): Key
Substance: 2710 (YKIGG; REGION 1..5: note = epitope) [compound 2710]

Epitope sequence binding to IgE antibody, rank of the sequence (serum of patient P17 (WDEIA)): Preferably
Substance: 2712 (YKIGG; REGION 1..5: note = epitope) [compound 2712]

Epitope sequence binding to IgE antibody, rank of the sequence (serum of patient P17 (WDEIA)): Key
Substance: 2713 (KIGG; REGION 1..4: note = epitope) [compound 2713]

Epitope sequence binding to IgE antibody, rank of the sequence (serum of patient P17 (WDEIA)): Key
Substance: 2714 (GIGTVPVGRV; REGION 1..10: note = epitope) [compound 2714]

Epitope sequence binding to IgE antibody, rank of the sequence (serum of patient P18 (WDEIA)): Preferably
Substance: 2716 (YKIGGI; REGION 1..6: note = epitope) [compound 2716]

Epitope sequence binding to IgE antibody, rank of the sequence (serum of patient P18 (WDEIA)): Key
Substance: 2717 (YKIGG; REGION 1..5: note = epitope) [compound 2717]

Epitope sequence binding to IgE antibody, rank of the sequence (serum of patient P18 (WDEIA)): Key
Substance: 2718 (GIGTVPVGRV; REGION 1..10: note = epitope) [compound 2718]

Epitope sequence binding to IgE antibody, rank of the sequence (serum of patient P25 (WDEIA)): Key
Substance: 2719 (YKIGG; REGION 1..5: note = epitope) [compound 2719]

Epitope sequence binding to IgE antibody, rank of the sequence (serum of patient P25 (WDEIA)): Preferably
Substance: 2720 (IGGIGTVPVG; REGION 1..10: note = epitope) [compound 2720]

Epitope sequence binding to IgE antibody, rank of the sequence (serum of patient P25 (WDEIA)): Key
Substance: 2721 (GIGTVPVG; REGION 1..8: note = epitope) [compound 2721]

Epitope sequence binding to IgE antibody, rank of the sequence (serum of patient P26 (WDEIA)): Preferably
Substance: 2722 (YKIGG; REGION 1..5: note = epitope) [compound 2722]
